Results: patent publication US12378224B2 (Dong-A Socio Holdings Co., Ltd., priority 2016, dated 2025)

What was measured:
[1] = biological target: human c-MER catalytic domain (Homo sapiens (Human), UniProt Q12866); experiment: TR-FRET Kinase Activity Biochemical Assay (LanthaScreen); conditions: 10 uM ATP, 1 hour, kinase not given
Summary of the method: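 Recombinant human c-MER catalytic domain phosphorylated fluorescein-labeled poly-GT substrate. The reaction was stopped with 10 mM EDTA, then 2 nM Tb-labeled anti-phosphotyrosine antibody was added for 30 min. Kinase activity was taken from the 495/520 nm TR-FRET emission ratio after 340 nm excitation.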

[2] = biological target: CD8-MerTK (Ba/F3-CDM cells) (Homo sapiens, UniProt Q12866); experiment: In Cell MER Kinase Assay Using BaF3 Cellular System; format: cell-based; conditions: Ba/F3-CDM proliferation without IL-3, 48 hours, Celltiter-Glo
Sequence of CD8-MerTK (Ba/F3-CDM cells) (Q12866 21-999 limits assumed, stated change not applied): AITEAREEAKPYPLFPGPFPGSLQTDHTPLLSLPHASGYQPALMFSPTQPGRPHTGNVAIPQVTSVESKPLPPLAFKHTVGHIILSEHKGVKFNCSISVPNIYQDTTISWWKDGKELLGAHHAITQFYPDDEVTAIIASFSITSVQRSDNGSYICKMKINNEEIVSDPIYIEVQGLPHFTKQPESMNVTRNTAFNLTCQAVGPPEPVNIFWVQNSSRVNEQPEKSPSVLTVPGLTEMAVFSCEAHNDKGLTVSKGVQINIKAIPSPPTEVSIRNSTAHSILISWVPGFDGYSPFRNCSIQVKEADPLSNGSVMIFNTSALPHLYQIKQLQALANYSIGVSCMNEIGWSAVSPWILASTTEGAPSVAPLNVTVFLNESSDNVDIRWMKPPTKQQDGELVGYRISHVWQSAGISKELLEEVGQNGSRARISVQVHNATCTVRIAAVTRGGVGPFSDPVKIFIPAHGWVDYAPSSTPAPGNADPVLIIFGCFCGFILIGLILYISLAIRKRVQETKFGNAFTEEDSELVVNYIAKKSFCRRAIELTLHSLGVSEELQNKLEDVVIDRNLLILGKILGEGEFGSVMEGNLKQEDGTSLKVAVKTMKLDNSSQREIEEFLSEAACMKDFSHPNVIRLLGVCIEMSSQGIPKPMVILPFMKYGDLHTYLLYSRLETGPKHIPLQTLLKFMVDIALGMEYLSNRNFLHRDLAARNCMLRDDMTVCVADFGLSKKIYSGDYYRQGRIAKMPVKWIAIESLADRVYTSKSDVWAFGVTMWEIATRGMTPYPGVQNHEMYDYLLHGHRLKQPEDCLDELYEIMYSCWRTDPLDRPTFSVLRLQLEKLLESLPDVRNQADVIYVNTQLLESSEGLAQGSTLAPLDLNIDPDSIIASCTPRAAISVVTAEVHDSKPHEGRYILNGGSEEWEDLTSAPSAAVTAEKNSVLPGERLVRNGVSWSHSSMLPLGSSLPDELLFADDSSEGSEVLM
Excerpt: CD8-MerTK is a chimeric fusion protein consisting of the extracellular and transmembrane domains of the human CD8α (amino acids 1 to 209) at its N-terminus and the kinase domain and intracellular parts of MerTK (amino acids 521-994) at its C-terminus. To establish an in cell kinase assay for MerTK kinase, the IL-3 dependent Ba/F3 cells of murine lymphoid origin was transfected with CD8-MerTK. The resulting Ba/F3-CDM line was then validated that Ba/F3-CDM cell proliferation is completely dependent on the activity of MerTK kinase activity when growing in the absence of IL-3. For a routine cellular assay, Ba/F3-CDM cells were seeded at 2,000 cells per well in 384-well cell culture plate containing DMEM/10% FBS culture media and incubated for 24 hours before addition of compounds pre-diluted in culture media. Following compound treatment, cells were further incubated for 48 hours and the proliferation was measured. To discriminate a Ba/F3 growth inhibition by a specific inhibition of MerTK kinase following compound treatment vs growth inhibition due to a non-specific unintended cytotoxicity of compounds, we routinely carried out control sets of Ba/F3 cells in parallel that grown in IL3-supplemented growth media. In the presence of IL-3, the proliferation of Ba/F3 is no longer dependent on the MerTK activity. Cell growth and proliferation was measured with Celltiter-Glo™ system (Promega, USA) according to the manufacturer's instruction. The half-maximal growth inhibitory concentration (GI50) value was calculated with Prism6.0 software (GraphPad, USA).

human MER (528-end) = human MER (528-end) (Homo sapiens (Human), UniProt Q12866); experiment: HTRF Kinase Activity Biochemical Assay (KinEASE-TK); conditions: 10 uM ATP
Sequence of human MER (528-end) (Q12866 528-999 limits assumed): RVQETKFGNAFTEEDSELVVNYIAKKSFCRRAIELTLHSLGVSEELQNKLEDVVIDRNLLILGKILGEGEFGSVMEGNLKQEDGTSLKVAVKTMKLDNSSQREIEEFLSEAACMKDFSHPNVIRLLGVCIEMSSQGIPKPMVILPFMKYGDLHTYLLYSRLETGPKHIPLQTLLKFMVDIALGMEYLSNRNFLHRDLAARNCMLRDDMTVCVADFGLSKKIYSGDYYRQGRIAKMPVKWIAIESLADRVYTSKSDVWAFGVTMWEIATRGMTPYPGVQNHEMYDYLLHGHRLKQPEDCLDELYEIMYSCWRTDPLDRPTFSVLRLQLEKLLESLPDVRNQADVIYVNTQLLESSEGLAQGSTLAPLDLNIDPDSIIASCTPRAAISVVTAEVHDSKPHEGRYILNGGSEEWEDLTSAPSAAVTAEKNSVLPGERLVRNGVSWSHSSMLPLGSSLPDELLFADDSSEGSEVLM
Summary of the method: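 Recombinant human MER (528-end) phosphorylated biotin-TK peptide substrate, 1 h at room temperature. Reaction stopped with detection buffer containing 0.375 nM Eu3+-cryptate anti-TK antibody and 0.062 uM streptavidin-XL665, 1 h further. Activity taken as HTRF ratio 665/620 nm ×10,000, 340 nm excitation.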

[3] = biological target: BCR fusion to kinase domain of MerTK (Ba/F3-MerTK) (Homo sapiens, UniProt Q12866); experiment: In Cell TAM Kinase Assay Using BaF3 Cellular System; format: cell-based, murine; conditions: Ba/F3 BCR-kinase fusion proliferation, 72 hours, Cell Titer Glo; kinase not given; read-out: IC50
Sequence of BCR fusion to kinase domain of MerTK (Ba/F3-MerTK) (Q12866 21-999 limits assumed, change not shown): as the sequence (Q12866 21-999 limits assumed, stated change not applied) above
Summary of the method: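 Ba/F3 murine pro-B cells expressing BCR–MerTK kinase-domain fusion (IL-3 independent), seeded at 1,000 cells/well onto compound and grown 72 h. Viability read by CellTiter-Glo 2.0 luminescence after 30 min at room temperature.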

Sequence of human c-MER catalytic domain (Q12866 587-858): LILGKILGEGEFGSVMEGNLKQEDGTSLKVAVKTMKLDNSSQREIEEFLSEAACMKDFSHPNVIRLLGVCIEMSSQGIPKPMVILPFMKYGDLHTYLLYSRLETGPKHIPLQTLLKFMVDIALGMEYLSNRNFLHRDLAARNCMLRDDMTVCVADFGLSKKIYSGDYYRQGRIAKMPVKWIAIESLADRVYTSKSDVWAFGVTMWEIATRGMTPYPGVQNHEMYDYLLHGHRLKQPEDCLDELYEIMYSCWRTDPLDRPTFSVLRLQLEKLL

| IC50 (human MER (528-end)) [nM] | IC50 [3] [nM] | Compound | IC50 [1] [nM] | IC50 [2] [nM] |
| --- | --- | --- | --- | --- |
|  |  | Cn1cc(-c2cnc(N)c(C(=O)N[C@@H]3CCN(C(=O)Oc4ccc5cc(OCC6CCNCC6)ccc5c4)C3)c2)cn1 [Example 303] | 10 to 100 | 500 to 1000 |
|  |  | Cn1cc(-c2cnc(N)c(C(=O)N[C@@H]3CCN(C(=O)Oc4cccc(OCC5CCC(N)CC5)c4)C3)c2)cn1 (stereo partly drawn) [Example 305, 3-(((1R,4R)-4-aminocyclohexyl)methoxy)phenyl (R)-3-(2-amino-5-(1-methyl-1H-pyrazol-4-yl)nicotinamido)pyrrolidine-1-carboxylate] | 100 to 1000 | > 1000 |
|  |  | Cn1cc(-c2cnc(N)c(C(=O)N[C@@H]3CCN(C(=O)c4ccc(-c5ccc(OCC6CCNCC6)cc5)cc4)C3)c2)cn1 [Example 550] | 10 to 100 | > 1000 |
|  |  | Nc1cncc(-c2cnc(N)c(C(=O)N[C@@H]3CCN(C(=O)c4ccc(-c5ccc(F)cc5Cl)cc4)C3)c2)c1 [Example 583, (R)-5′,6-diamino-N-(1-(2′-chloro-4′-fluoro-[1,1′-biphenyl]-4-carbonyl)pyrrolidin-3-yl)-[3,3′-bipyridine]-1-5-carboxamide] | < 10 | > 1000 |
| > 1000 | > 1000 | Cn1cc(-c2cnc(N)c(C(=O)N[C@@H]3CCN(C(=O)c4ccc(Oc5cccc([N+](=O)[O-])c5)cc4)C3)c2)cn1 [Example 829, (R)-2-amino-5-(1-methyl-1H-pyrazol-4-yl)-N-(1-(4-(3-nitrophenoxy)benzoyl)pyrrolidin-3-yl)nicotinamide] |  |  |
| 100 to 1000 | > 1000 | Cn1cc(-c2cnc(N)c(C(=O)N[C@@H]3CCN(C(=O)c4ccc(Oc5cccc(N)c5)cc4)C3)c2)cn1 [Example 830, (R)-2-amino-N-(1-(4-(3-aminophenoxy)benzoyl)pyrrolidin-3-yl)-5-(1-methyl-1H-pyrazol-4-yl)nicotinamide] |  |  |
| 100 to 1000 | > 1000 | Cn1cc(-c2cnc(N)c(C(=O)N[C@@H]3CCN(C(=O)c4ccc(Oc5ccc([N+](=O)[O-])cc5)cc4)C3)c2)cn1 [Example 831, (R)-2-amino-5-(1-methyl-1H-pyrazol-4-yl)-N-(1-(4-(4-nitrophenoxy)benzoyl)pyrrolidin-3-yl)nicotinamide] |  |  |
| > 1000 | > 1000 | Cn1cc(-c2cnc(N)c(C(=O)N[C@@H]3CCN(C(=O)c4ccc(Oc5ccc(N)cc5)cc4)C3)c2)cn1 [Example 832, (R)-2-amino-N-(1-(4-(4-aminophenoxy)benzoyl)pyrrolidin-3-yl)-5-(1-methyl-1H-pyrazol-4-yl)nicotinamide] |  |  |
| 100 to 1000 | > 1000 | CN(c1ccc(-c2ccc(C(=O)N3CC[C@@H](NC(=O)c4cc(-c5cnn(C)c5)cnc4N)C3)cc2)cc1)c1ccc(N)cc1F [Example 835, (R)-2-amino-N-(1-(4′-((4-amino-2-fluorophenyl)(methyl)amino)-[1,1′-biphenyl]-4-carbonyl)pyrrolidin-3-yl)-5-(1-methyl-1H-pyrazol-4-yl)nicotinamide] |  |  |
| 100 to 1000 | > 1000 | Cc1cc(N)ccc1N(C)c1ccc(-c2ccc(C(=O)N3CC[C@@H](NC(=O)c4cc(-c5cnn(C)c5)cnc4N)C3)cc2)cc1 [Example 836, (R)-2-amino-N-(1-(4′-((4-amino-2-methylphenyl)(methyl)amino)-[1,1′-biphenyl]-4-carbonyl)pyrrolidin-3-yl)-5-(1-methyl-1H-pyrazol-4-yl)nicotinamide] |  |  |
| 100 to 1000 | > 1000 | CN(c1ccc(-c2ccc(C(=O)N3CC[C@@H](NC(=O)c4cc(-c5cnn(C)c5)cnc4N)C3)cc2)cc1)c1ccc(N)cc1Cl [Example 837, (R)-2-amino-N-(1-(4′-((4-amino-2-chlorophenyl)(methyl)amino)-[1,1′-biphenyl]-4-carbonyl)pyrrolidin-3-yl)-5-(1-methyl-1H-pyrazol-4-yl)nicotinamide] |  |  |
| 100 to 1000 | > 1000 | Cn1cc(-c2cnc(N)c(C(=O)N[C@@H]3CCN(C(=O)c4ccc(OCc5cccc(N)c5)cc4)C3)c2)cn1 [Example 838, (R)-2-amino-N-(1-(4-((3-aminobenzyl)oxy)benzoyl)pyrrolidin-3-yl)-5-(1-methyl-1H-pyrazol-4-yl)nicotinamide] |  |  |
|  |  | (R)-2-amino-N-(1 chlorophenyl)carbamoyl)pyrrolidin-3-yl)-5-(1-(1-methylpiperidin-4-yl)-1H-pyrazol-4-yl)nicotinamide [Example 11] | 10 to 100 | > 1000 |
|  |  | (R)-2-amino-N-(1-(2′-chloro-[1,1′-biphenyl]-4-carbonyl)pyrrolidin-3-yl)-5-(4-(4-methylpiperazin-1-yl)phenyl)nicotinamide [Example 570] | < 10 | 100 to 500 |
|  |  | (R)-2-amino-N-(1-((4′-(dimethylamino)-[1,1′-biphenyl]-3-yl)carbamoyl)pyrrolidin-3-yl)-5-(1-methyl-1H-pyrazol-4-yl)nicotinamide [Example 263] | 10 to 100 | > 1000 |

| Compound | IC50 (human MER (528-end)) [nM] | IC50 [3] [nM] | IC50 [1] [nM] | IC50 [2] [nM] |
| --- | --- | --- | --- | --- |
| Cc1cc(-c2ccc(CN3CCN(C)CC3)cc2)ccc1C(=O)N1CC[C@@H](NC(=O)c2cc(-c3cnn(C)c3)cnc2N)C1 [Example 391, (R)-2-amino-5-(1-methyl-1H-pyrazol-4-yl)-N-(1-(3-methyl-4^1-((4-methylpiperazin-1-yl)methyl)-[1,1′-biphenyl]-4-carbonyl)pyrrolidin-3-yl)nicotinamide] | > 1000 |  |  | > 1000 |
| Cc1cc(C(=O)N2CC[C@@H](NC(=O)c3cc(-c4cnn(C)c4)cnc3N)C2)ccc1-c1ccc(CN2CCN(C)CC2)cc1 [Example 392, (R)-2-amino-5-(1-methyl-1H-pyrazol-4-yl)-N-(1-(2-methyl-4^1-((4-methylpiperazin-1-yl)methyl)-[1,1′-biphenyl]-4-carbonyl)pyrrolidin-3-yl)nicotinamide] | 100 to 1000 |  |  | > 1000 |
| Nc1ncc(-c2ccc(N3CCOCC3)nc2)cc1C(=O)N[C@@H]1CCN(C(=O)c2ccc(-c3ccccc3)cc2)C1 [Example 559] | 10 to 100 |  |  | 100 to 500 |
| Nc1ncc(-c2ccccc2C(=O)O)cc1C(=O)N[C@@H]1CCN(C(=O)c2ccc(-c3ccc(F)cc3Cl)cc2)C1 [Example 777, (R)-2-(6-amino-5-((1-(2′-chloro-4′-fluoro-[1,1′-biphenyl]-4-carbonyl)pyrrolidin-3-yl)carbarnoyl)pyridin-3-yl)benzoic acid] | > 1000 |  |  | > 1000 |
| (R)-2-amino-N-(1-(2-chloro-[1,1′-biphenyl]-4-carbonyl)pyrrolidin-3-yl)-5-(1-methyl-1H-pyrazol-4-yl)nicotinamide [Example 394] | 100 to 1000 |  |  | > 1000 |
| (R)-2-amino-N-(1-(2′-chloro-4′-fluoro-[1,1′-biphenyl]-4-carbonyl)pyrrolidin-3-yl)-5-(2-(piperidin-4-ylmethoxy)phenyl)nicotinamide [Example 771] | 100 to 1000 | > 1000 |  |  |
| (R)-2-amino-N-(1-(4′-(4-hydroxyphenoxy)-[1,1′-biphenyl]-4-carbonyl)pyrrolidin-3-yl)-5-(1-methyl-1H-pyrazol-4-yl)nicotinamide [Example 800] | 10 to 100 | > 1000 |  |  |
